Laboratory results published in ChEMBL document CHEMBL1156264, “Synthesis and structure-activity relationships of dimeric peptide antagonists of the human immunoglobulin G-human neonatal Fc receptor (IgG-FcRn) interaction” (J Med Chem, 2010).
Numbered stars: 1 amine (or outer) side, 2 acyl side, 3 side chain; on linkers, the order of the positions; unused ones are H or OH. Bridge positions count the residues as written; N and C are the ends. Square brackets hold non-standard residues; d marks the D form. Peptide text beside a SMILES is read from it. X1 = O=C(C(=O)[*:2])[C@H](Cc1ccc(O)cc1)N[*:1]; NHCH2CH2N(Me)CH2CO = CN(CCN[*:1])CC(=O)[*:2]; NMeL = CN[C@@H](CC(C)C)C(=O)O; Pen = CC(C)(S)[C@H](N)C(=O)O; Sar = CNCC(=O)O

The molecules below were run against IgG receptor FcRn large subunit p51 (Homo sapiens, UniProt P55899) (assay: Inhibition of IgG binding to soluble human FcRn after 2 hrs by competition ELISA).
Sequence of IgG receptor FcRn large subunit p51 (P55899 whole entry): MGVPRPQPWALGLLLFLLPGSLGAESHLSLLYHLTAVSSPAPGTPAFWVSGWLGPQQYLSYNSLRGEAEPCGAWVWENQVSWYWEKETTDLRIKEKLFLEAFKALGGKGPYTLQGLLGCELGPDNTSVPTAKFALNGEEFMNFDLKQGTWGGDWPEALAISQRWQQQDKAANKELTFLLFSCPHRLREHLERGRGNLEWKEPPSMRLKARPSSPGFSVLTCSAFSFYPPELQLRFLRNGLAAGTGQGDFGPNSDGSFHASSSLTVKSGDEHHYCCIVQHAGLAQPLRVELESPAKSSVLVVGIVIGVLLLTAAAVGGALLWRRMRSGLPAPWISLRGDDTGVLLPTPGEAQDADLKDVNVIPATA

Row | IC50 | Structure (SMILES)
1 | 5 nM | CC(C)C[C@H]1C(=O)N[C@@H](Cc2ccc(O)cc2)C(=O)C(=O)N2CCC[C@H]2C(=O)N[C@H](C(N)=O)CSSC(C)(C)[C@H](NC(=O)[C@H](Cc2ccccc2)NC(=O)[C@H](CCCNC(=N)N)NC(=O)CC(C)(C)CC(=O)N[C@@H](CCCNC(=N)N)C(=O)N[C@@H](Cc2ccccc2)C(=O)N[C@@H]2C(=O)N[C@@H]([C@@H](C)O)C(=O)NCC(=O)N[C@@H](Cc3cnc[nH]3)C(=O)N[C@@H](Cc3ccccc3)C(=O)NCC(=O)N(C)CC(=O)N(C)[C@@H](CC(C)C)C(=O)N[C@@H](Cc3ccc(O)cc3)C(=O)C(=O)N3CCC[C@H]3C(=O)N[C@H](C(N)=O)CSSC2(C)C)C(=O)N[C@@H]([C@@H](C)O)C(=O)NCC(=O)N[C@@H](Cc2cnc[nH]2)C(=O)N[C@@H](Cc2ccccc2)C(=O)NCC(=O)N(C)CC(=O)N1C
2 | 3.9 nM | CC(C)C[C@H]1C(=O)N[C@@H](Cc2ccc(O)cc2)C(=O)C(=O)N2CCC[C@H]2C(=O)N[C@H](C(N)=O)CSSC(C)(C)[C@H](NC(=O)[C@H](Cc2ccccc2)NC(=O)[C@H](CCCNC(=N)N)NC(=O)CN(C)CCNC(=O)CNC(=O)[C@@H]2CSSC(C)(C)[C@H](NC(=O)[C@H](Cc3ccccc3)NC(=O)[C@@H](N)CCCNC(=N)N)C(=O)N[C@@H]([C@@H](C)O)C(=O)NCC(=O)N[C@@H](Cc3cnc[nH]3)C(=O)N[C@@H](Cc3ccccc3)C(=O)NCC(=O)N(C)CC(=O)N(C)[C@@H](CC(C)C)C(=O)N[C@@H](Cc3ccc(O)cc3)C(=O)C(=O)N3CCC[C@H]3C(=O)N2)C(=O)N[C@@H]([C@@H](C)O)C(=O)NCC(=O)N[C@@H](Cc2cnc[nH]2)C(=O)N[C@@H](Cc2ccccc2)C(=O)NCC(=O)N(C)CC(=O)N1C (H-RF[Pen]TGHFG[Sar][NMeL][X1]PCG[NHCH2CH2N(Me)CH2CO]RF[Pen]TGHFG[Sar][NMeL][X1]PC-NH2; disulfide 3-13, 18-28)
3 | 2.4 nM | CC(C)C[C@H]1C(=O)N[C@@H](Cc2ccc(O)cc2)C(=O)C(=O)N2CCC[C@H]2C(=O)N[C@H](C(N)=O)CSSC(C)(C)[C@H](NC(=O)[C@H](Cc2ccccc2)NC(=O)[C@H](CCCNC(=N)N)NC(=O)CCC(=O)N[C@@H](CCCNC(=N)N)C(=O)N[C@@H](Cc2ccccc2)C(=O)N[C@@H]2C(=O)N[C@@H]([C@@H](C)O)C(=O)NCC(=O)N[C@@H](Cc3cnc[nH]3)C(=O)N[C@@H](Cc3ccccc3)C(=O)NCC(=O)N(C)CC(=O)N(C)[C@@H](CC(C)C)C(=O)N[C@@H](Cc3ccc(O)cc3)C(=O)C(=O)N3CCC[C@H]3C(=O)N[C@H](C(N)=O)CSSC2(C)C)C(=O)N[C@@H]([C@@H](C)O)C(=O)NCC(=O)N[C@@H](Cc2cnc[nH]2)C(=O)N[C@@H](Cc2ccccc2)C(=O)NCC(=O)N(C)CC(=O)N1C
4 | 3000 nM | CC(C)C[C@@H]1NC(=O)CNC(=O)CNC(=O)[C@H](Cc2ccccc2)NC(=O)[C@H](Cc2cnc[nH]2)NC(=O)CNC(=O)[C@H]([C@@H](C)O)NC(=O)[C@@H](NC(=O)[C@H](Cc2ccccc2)NC(=O)[C@H](CCCNC(=N)N)NC(=O)CCC(=O)NCCN(C)CC(=O)N[C@@H](CCCNC(=N)N)C(=O)N[C@@H](Cc2ccccc2)C(=O)N[C@H]2CSSC[C@@H](C(N)=O)NC(=O)[C@@H]3CCCN3C(=O)C(=O)[C@H](Cc3ccc(O)cc3)NC(=O)[C@H](CC(C)C)NC(=O)CNC(=O)CNC(=O)[C@H](Cc3ccccc3)NC(=O)[C@H](Cc3cnc[nH]3)NC(=O)CNC(=O)[C@H]([C@@H](C)O)NC2=O)CSSC[C@@H](C(N)=O)NC(=O)[C@@H]2CCCN2C(=O)C(=O)[C@H](Cc2ccc(O)cc2)NC1=O
5 | 4.8 nM | CC(C)C[C@H]1C(=O)N[C@@H](Cc2ccc(O)cc2)C(=O)C(=O)N2CCC[C@H]2C(=O)N[C@H](C(N)=O)CSSC(C)(C)[C@H](NC(=O)[C@H](Cc2ccccc2)NC(=O)[C@H](CCCNC(=N)N)NC(=O)CCOCCOCCOCCOCCOCCC(=O)N[C@@H](CCCNC(=N)N)C(=O)N[C@@H](Cc2ccccc2)C(=O)N[C@@H]2C(=O)N[C@@H]([C@@H](C)O)C(=O)NCC(=O)N[C@@H](Cc3cnc[nH]3)C(=O)N[C@@H](Cc3ccccc3)C(=O)NCC(=O)N(C)CC(=O)N(C)[C@@H](CC(C)C)C(=O)N[C@@H](Cc3ccc(O)cc3)C(=O)C(=O)N3CCC[C@H]3C(=O)N[C@H](C(N)=O)CSSC2(C)C)C(=O)N[C@@H]([C@@H](C)O)C(=O)NCC(=O)N[C@@H](Cc2cnc[nH]2)C(=O)N[C@@H](Cc2ccccc2)C(=O)NCC(=O)N(C)CC(=O)N1C
